Measurements reported in ChEMBL document CHEMBL1201862, “PubChem BioAssay data set” (2004).
The source made the active and inactive calls.

Legend:
Type in all cases: functional
[1] = target: Phosphorylase b kinase gamma catalytic chain, liver/testis isoform (Homo sapiens, UniProt P15735);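 further: PHKG2 measured as one member of a kinome-wide kinase panel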
[2] = target: Serine/threonine-protein kinase D3 (Homo sapiens, UniProt O94806);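 further: determined within a kinase panel screen, with PRKCN as the panel member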
[3] = target: T1, Interleukin-1 receptor-associated kinase 4 (Homo sapiens, UniProt Q9NWZ3)
T1 sequence (Q9NWZ3 whole entry): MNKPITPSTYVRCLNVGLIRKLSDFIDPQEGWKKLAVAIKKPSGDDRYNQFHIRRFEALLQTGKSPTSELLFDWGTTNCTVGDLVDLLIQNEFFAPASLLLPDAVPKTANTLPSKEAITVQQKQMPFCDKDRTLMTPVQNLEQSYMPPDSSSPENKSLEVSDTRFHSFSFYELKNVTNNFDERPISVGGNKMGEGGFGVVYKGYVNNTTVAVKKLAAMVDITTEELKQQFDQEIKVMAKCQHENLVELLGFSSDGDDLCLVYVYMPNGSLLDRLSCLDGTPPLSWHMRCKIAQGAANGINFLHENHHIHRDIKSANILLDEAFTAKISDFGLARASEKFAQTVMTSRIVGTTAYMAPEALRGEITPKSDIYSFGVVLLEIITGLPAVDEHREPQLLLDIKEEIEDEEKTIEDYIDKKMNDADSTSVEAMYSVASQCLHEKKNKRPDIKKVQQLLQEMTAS

[4] = target: Serine/threonine-protein kinase pim-2 (Homo sapiens, UniProt Q9P1W9);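 further: value comes from a broad kinase panel profiling study in which PIM2 was one of the panel members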
Serine/threonine-protein kinase pim-2, sequence (Q9P1W9 whole entry): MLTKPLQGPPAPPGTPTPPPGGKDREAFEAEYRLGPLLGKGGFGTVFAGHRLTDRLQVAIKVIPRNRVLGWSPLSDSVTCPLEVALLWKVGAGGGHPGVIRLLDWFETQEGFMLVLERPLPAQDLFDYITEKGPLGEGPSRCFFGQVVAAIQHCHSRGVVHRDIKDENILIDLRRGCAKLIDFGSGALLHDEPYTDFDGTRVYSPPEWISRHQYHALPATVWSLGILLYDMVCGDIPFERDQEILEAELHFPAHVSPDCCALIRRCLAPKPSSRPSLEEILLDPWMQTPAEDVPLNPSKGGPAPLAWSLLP

[5] = target: Serine/threonine-protein kinase DCLK1 (Homo sapiens, UniProt O15075);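 further: affinity for DCLK1 (listed as DCAMKL1) measured as one member of a kinome-wide kinase profiling panel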
[6] = target: Lymphokine-activated killer T-cell-originated protein kinase (Homo sapiens, UniProt Q96KB5);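 further: value comes from a kinase panel screen in which TOPK was one of the panel members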
Lymphokine-activated killer T-cell-originated protein kinase, sequence (Q96KB5 whole entry): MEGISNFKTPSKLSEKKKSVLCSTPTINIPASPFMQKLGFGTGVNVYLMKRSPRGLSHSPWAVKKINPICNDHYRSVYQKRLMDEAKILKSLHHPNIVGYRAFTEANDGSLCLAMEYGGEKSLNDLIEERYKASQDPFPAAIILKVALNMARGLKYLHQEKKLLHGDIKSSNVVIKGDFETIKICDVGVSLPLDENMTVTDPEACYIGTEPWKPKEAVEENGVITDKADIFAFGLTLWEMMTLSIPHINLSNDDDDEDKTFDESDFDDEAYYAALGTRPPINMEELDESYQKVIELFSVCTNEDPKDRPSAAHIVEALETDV

[7] = target: Tyrosine-protein kinase JAK2 (Homo sapiens, UniProt O60674);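 further: JAK2 tested as one member of a kinase panel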
[8] = target: Tyrosine-protein kinase SYK (Homo sapiens, UniProt P43405)
[9] = target: Testis-specific serine/threonine-protein kinase 2 (Homo sapiens, UniProt Q96PF2);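 further: part of the Navigating the Kinome panel, target entry STK22B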
[10] = target: Tyrosine-protein kinase Lck (Homo sapiens, UniProt P06239);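 further: lck was assayed as one member of a kinase panel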
[11] = target: MAP kinase-activated protein kinase 5 (Homo sapiens, UniProt Q8IW41);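 further: measured as one member of a kinome panel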
MAP kinase-activated protein kinase 5, sequence (Q8IW41 whole entry): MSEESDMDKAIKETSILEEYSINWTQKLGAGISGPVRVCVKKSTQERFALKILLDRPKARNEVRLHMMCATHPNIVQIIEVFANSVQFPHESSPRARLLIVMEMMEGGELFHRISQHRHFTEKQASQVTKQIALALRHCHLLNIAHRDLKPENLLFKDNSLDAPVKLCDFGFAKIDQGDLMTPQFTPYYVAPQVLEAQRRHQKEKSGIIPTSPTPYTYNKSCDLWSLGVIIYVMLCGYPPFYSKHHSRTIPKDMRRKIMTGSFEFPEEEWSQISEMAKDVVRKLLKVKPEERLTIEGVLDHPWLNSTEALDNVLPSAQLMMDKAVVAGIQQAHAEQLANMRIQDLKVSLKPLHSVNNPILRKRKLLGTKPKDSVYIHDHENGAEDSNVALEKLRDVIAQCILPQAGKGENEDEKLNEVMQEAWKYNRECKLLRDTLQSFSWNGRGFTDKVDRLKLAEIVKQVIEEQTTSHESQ

[12] = target: Calcium/calmodulin-dependent protein kinase type II subunit delta (Homo sapiens, UniProt Q13557)
[13] = target: T2, Tyrosine-protein kinase JAK3 (Homo sapiens, UniProt P52333)
T2 sequence (P52333 whole entry): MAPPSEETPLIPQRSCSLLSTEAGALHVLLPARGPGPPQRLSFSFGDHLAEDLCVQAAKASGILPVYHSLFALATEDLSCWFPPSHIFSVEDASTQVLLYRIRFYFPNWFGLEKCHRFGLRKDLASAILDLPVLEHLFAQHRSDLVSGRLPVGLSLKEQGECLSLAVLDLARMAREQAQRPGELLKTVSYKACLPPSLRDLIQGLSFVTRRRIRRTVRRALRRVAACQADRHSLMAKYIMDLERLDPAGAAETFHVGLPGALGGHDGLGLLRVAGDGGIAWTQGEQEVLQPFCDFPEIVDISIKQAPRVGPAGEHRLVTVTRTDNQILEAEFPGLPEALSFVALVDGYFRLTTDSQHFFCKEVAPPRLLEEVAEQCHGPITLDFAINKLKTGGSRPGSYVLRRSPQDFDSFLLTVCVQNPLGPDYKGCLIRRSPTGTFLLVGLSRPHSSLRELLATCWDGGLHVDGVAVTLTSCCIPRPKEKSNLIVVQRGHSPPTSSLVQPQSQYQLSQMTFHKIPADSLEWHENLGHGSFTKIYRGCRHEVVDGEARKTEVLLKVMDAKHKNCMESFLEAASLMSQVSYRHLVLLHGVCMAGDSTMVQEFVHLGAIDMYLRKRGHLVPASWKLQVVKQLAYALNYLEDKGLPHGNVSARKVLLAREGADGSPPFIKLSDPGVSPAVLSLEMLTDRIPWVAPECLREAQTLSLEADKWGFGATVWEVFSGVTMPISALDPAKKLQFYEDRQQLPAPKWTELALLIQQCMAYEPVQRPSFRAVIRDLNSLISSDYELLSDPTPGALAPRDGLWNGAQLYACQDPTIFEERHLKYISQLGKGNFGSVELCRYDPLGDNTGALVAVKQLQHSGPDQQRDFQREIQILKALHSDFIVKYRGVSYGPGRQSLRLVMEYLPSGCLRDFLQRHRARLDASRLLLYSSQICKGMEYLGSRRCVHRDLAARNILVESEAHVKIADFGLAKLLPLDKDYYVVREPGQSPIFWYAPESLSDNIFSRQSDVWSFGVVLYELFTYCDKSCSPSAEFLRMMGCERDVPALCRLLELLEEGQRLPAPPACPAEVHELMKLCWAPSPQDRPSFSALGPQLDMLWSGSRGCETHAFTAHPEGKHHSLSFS

[14] = target: Tyrosine-protein kinase Lyn (Homo sapiens, UniProt P07948);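 further: lyn as one member of a kinase panel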
[15] = target: Mitogen-activated protein kinase 9 (Homo sapiens, UniProt P45984);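 further: value from a kinome panel profiling assay, MAPK9 panel entry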
Mitogen-activated protein kinase 9, sequence (P45984 whole entry): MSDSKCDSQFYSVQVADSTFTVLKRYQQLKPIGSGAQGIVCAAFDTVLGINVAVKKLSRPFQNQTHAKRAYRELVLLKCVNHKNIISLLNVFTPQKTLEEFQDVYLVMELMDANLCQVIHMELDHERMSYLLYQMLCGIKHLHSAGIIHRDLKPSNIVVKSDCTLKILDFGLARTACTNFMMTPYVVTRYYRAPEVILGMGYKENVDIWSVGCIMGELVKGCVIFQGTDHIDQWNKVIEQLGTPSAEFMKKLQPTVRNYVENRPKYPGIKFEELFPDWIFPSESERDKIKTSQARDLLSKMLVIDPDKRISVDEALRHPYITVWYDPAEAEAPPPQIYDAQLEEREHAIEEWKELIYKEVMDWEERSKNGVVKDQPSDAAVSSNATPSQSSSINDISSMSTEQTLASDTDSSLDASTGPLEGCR

[16] = target: T3, Tyrosine-protein kinase ITK/TSK (Homo sapiens, UniProt Q08881);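 further: affinity for ITK measured as one member of a broad kinase panel profiling binding across the kinome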
T3 sequence (Q08881 whole entry): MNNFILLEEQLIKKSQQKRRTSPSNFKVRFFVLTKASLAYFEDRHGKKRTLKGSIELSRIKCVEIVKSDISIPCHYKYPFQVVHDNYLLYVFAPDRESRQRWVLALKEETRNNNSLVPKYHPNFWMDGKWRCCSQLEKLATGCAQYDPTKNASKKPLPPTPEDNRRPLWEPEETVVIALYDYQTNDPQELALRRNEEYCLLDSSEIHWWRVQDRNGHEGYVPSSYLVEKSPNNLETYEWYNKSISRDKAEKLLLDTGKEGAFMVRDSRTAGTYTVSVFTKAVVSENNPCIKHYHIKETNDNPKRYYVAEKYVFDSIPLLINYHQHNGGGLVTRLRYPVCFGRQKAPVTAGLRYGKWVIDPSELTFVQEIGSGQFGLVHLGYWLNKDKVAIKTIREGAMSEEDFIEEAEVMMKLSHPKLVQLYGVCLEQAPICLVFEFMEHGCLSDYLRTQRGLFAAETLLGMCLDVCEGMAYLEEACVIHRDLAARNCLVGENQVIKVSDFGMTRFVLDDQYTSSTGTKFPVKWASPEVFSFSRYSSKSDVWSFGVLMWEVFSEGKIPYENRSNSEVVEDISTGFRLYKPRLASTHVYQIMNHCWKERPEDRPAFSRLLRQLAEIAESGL

[17] = target: Testis-specific serine/threonine-protein kinase 1 (Homo sapiens, UniProt Q9BXA7)
Testis-specific serine/threonine-protein kinase 1, sequence (Q9BXA7 whole entry): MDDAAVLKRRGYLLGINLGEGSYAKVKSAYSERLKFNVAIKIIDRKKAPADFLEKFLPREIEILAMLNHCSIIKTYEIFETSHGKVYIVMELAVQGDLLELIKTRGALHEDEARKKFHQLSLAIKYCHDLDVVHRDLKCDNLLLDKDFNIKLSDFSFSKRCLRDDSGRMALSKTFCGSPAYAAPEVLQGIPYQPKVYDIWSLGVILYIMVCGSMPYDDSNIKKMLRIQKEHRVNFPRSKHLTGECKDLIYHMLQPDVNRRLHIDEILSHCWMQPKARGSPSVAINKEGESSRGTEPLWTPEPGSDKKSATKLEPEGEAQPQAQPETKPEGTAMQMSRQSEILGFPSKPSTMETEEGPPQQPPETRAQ

[18] = target: Mitogen-activated protein kinase 13 (Homo sapiens, UniProt O15264)
[19] = target: Tyrosine-protein kinase Srms (Homo sapiens, UniProt Q9H3Y6);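 further: SRMS measured as one member of a kinome-wide kinase profiling panel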
[20] = target: Receptor tyrosine-protein kinase erbB-2 (Homo sapiens, UniProt P04626); assay: Navigating the Kinome. Panel member name: ERBB2
[21] = target: Mitogen-activated protein kinase 1 (Homo sapiens, UniProt P28482)
[22] = target: Interleukin-1 receptor-associated kinase 1 (Homo sapiens, UniProt P51617);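 further: IRAK1 tested as one member of a kinome panel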
[23] = target: Aurora kinase B (Homo sapiens, UniProt Q96GD4)
[24] = target: Tyrosine-protein kinase Fer (Homo sapiens, UniProt P16591);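 further: FER tested as one member of a kinome panel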
[25] = target: Dual specificity protein kinase CLK4 (Homo sapiens, UniProt Q9HAZ1)
Dual specificity protein kinase CLK4, sequence (Q9HAZ1 whole entry): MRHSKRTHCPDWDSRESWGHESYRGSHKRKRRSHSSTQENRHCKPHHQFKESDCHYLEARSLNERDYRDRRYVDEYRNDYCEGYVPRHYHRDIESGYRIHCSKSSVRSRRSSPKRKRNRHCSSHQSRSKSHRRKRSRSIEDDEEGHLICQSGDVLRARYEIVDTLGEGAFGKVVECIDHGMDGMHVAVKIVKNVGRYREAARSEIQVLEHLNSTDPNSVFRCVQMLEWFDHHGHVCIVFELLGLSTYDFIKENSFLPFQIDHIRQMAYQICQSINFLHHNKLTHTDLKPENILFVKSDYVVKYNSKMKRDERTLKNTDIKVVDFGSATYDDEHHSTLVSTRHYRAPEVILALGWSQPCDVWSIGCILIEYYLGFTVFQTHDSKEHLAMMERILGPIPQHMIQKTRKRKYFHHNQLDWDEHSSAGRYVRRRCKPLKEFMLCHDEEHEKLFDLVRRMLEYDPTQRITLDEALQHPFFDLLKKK

[26] = target: ALK tyrosine kinase receptor (Homo sapiens, UniProt Q9UM73);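 further: ALK tested as one member of a kinase panel screen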
ALK tyrosine kinase receptor, sequence (Q9UM73 whole entry): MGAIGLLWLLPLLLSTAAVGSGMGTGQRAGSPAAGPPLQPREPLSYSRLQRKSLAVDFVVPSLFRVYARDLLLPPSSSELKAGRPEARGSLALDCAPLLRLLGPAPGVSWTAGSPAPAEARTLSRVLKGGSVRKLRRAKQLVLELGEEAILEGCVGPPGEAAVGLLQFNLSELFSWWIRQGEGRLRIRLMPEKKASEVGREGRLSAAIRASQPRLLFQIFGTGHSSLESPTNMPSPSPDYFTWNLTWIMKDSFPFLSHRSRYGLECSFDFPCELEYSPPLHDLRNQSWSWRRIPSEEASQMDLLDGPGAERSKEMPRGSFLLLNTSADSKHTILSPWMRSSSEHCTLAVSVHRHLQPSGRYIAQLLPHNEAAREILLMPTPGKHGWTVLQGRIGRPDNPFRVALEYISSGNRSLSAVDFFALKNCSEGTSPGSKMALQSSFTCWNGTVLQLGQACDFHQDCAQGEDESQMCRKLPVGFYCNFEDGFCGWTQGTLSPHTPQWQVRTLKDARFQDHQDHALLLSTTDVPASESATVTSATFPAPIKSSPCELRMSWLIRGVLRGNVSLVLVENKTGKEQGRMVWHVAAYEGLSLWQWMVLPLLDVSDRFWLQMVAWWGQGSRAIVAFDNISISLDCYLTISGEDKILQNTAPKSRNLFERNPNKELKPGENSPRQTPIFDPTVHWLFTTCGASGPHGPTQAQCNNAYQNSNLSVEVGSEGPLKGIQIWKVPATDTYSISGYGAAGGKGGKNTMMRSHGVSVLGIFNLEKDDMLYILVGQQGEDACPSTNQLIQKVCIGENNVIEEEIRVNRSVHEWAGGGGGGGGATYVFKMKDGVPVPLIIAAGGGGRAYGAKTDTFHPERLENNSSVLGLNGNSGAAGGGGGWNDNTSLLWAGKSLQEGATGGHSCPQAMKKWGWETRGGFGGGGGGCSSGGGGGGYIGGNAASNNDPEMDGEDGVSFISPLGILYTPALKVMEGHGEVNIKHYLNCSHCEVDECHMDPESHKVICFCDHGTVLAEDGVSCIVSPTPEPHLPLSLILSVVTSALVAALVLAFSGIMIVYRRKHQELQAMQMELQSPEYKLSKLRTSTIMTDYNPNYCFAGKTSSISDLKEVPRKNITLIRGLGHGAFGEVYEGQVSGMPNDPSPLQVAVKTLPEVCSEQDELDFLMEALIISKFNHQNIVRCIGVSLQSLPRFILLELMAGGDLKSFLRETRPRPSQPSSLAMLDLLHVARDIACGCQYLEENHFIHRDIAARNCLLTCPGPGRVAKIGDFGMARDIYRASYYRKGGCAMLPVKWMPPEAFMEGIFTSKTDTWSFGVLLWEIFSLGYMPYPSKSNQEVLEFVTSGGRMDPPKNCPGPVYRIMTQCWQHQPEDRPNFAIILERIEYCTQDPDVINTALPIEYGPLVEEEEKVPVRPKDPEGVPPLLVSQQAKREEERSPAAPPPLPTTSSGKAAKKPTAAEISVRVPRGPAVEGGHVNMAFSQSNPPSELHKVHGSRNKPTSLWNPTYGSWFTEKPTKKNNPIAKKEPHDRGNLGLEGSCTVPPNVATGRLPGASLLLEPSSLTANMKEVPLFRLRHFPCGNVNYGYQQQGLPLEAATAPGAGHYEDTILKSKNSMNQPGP

[27] = target: Proto-oncogene tyrosine-protein kinase receptor Ret (Homo sapiens, UniProt P07949);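 further: measured within a kinome-wide profiling panel, RET as the panel member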
[28] = target: Tyrosine-protein kinase receptor TYRO3 (Homo sapiens, UniProt Q06418);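 further: TYRO3 value obtained as one member of a kinome-wide profiling panel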
[29] = target: Hepatocyte growth factor receptor (Homo sapiens, UniProt P08581);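 further: kinase panel profiling across the kinome, with MET as the panel member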
[30] = target: Dual specificity tyrosine-phosphorylation-regulated kinase 1B (Homo sapiens, UniProt Q9Y463); assay: Navigating the Kinome. Panel member name: DYRK1B
[31] = target: Leucine-rich repeat serine/threonine-protein kinase 2 (Homo sapiens, UniProt Q5S007);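 further: value from a broad kinome-wide panel profiling study in which LRRK2 was one of the kinases tested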
[32] = target: Cyclin-dependent kinase 8 (Homo sapiens, UniProt P49336); assay: Navigating the Kinome. Panel member name: CDK8
Cyclin-dependent kinase 8, sequence (P49336 whole entry): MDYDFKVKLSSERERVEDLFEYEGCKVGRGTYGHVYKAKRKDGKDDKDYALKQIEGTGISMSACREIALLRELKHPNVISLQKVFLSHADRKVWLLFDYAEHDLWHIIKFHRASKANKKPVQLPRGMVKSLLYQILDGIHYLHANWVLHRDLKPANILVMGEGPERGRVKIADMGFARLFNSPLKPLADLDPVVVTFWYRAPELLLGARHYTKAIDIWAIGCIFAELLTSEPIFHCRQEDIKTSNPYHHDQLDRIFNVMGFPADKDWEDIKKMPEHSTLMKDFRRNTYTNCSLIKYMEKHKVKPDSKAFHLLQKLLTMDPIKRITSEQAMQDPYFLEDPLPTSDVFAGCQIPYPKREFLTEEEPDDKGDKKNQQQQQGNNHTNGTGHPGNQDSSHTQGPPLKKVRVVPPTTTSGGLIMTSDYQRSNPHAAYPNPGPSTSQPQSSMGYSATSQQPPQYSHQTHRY

[33] = target: Macrophage-stimulating protein receptor (Homo sapiens, UniProt Q04912); assay: Navigating the Kinome. Panel member name: MST1R
[34] = target: Dual specificity tyrosine-phosphorylation-regulated kinase 1A (Homo sapiens, UniProt Q13627);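 further: measured against DYRK1A as one member of a broad kinome profiling panel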
[35] = target: Leukocyte tyrosine kinase receptor (Homo sapiens, UniProt P29376); assay: Navigating the Kinome. Panel member name: LTK
[36] = target: Serine/threonine-protein kinase TAO1 (Homo sapiens, UniProt Q7L7X3)
[37] = target: Cyclin-dependent kinase 19 (Homo sapiens, UniProt Q9BWU1); assay: Navigating the Kinome. Panel member name: CDC2L6
Cyclin-dependent kinase 19, sequence (Q9BWU1 whole entry): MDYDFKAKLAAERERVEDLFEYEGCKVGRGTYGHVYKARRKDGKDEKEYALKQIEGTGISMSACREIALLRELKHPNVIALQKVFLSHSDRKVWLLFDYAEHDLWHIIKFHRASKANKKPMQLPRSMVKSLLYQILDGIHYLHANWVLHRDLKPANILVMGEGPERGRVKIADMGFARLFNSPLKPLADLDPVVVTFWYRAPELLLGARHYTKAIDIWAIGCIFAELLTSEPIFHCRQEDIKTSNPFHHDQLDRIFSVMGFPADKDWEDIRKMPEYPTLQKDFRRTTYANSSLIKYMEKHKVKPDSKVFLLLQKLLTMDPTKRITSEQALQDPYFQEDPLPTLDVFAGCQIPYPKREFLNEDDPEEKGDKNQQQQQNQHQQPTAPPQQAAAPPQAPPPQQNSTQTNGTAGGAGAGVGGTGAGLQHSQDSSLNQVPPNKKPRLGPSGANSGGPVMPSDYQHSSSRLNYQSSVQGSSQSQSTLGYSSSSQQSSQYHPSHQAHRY

[38] = target: STE20-like serine/threonine-protein kinase (Homo sapiens, UniProt Q9H2G2)
[39] = target: Mitogen-activated protein kinase kinase kinase kinase 4 (Homo sapiens, UniProt O95819)

For `CN(c1ccc2[nH]ncc2c1)c1c(NCc2ccc(Cl)cc2Cl)c(=O)c1=O`, the Ki [1] was 5010 nM (active), the Ki [2] was 6310 nM (active) and the Ki [3] was 10000 nM (active). For the same compound, the Ki [4] was 1260 nM (active), the Ki [5] was 10000 nM (active) and the Ki [6] was 10000 nM (active).

In the case of `COc1ccc2c(c1)C(=Cc1cnc[nH]1)C(=O)N2`, the Ki [7] is reported as 501 nM (active), the Ki [8] is reported as > 1580 nM (inactive) and the Ki [9] is reported as > 1580 nM (inactive). The Ki [10] was 1580 nM (active), the Ki [11] was > 1580 nM (inactive) and the Ki [12] was 1580 nM (active). For the same compound, the Ki [13] was 501 nM (active), the Ki [14] was > 1580 nM (inactive) and the Ki [15] was 1580 nM (active). For the same compound, the Ki [16] was > 1580 nM (inactive), the Ki [17] was > 1580 nM (inactive) and the Ki [18] was > 7940 nM (inactive). For the same compound, the Ki [19] was > 1580 nM (inactive), the Ki [20] was > 1580 nM (inactive) and the Ki [21] was 501 nM (active). For the same compound, the Ki [22] was 1580 nM (active), the Ki [23] was 251 nM (active) and the Ki [24] was > 1580 nM (inactive). The Ki [4] was > 1580 nM (inactive) and the Ki [25] was 251 nM (active).

`O=c1[nH]nc2c(-c3ccccc3)cccn12` was tested, and the Ki [26] was 100000 nM (active), the Ki [27] was 50100 nM (active) and the Ki [28] was 63100 nM (active). For the same compound, the Ki [29] was 79400 nM (active), the Ki [30] was 39800 nM (active) and the Ki [31] was 39800 nM (active). The Ki [32] was 63100 nM (active), the Ki [25] was 10000 nM (active) and the Ki [33] was 63100 nM (active). The Ki [34] was 39800 nM (active) and the Ki [35] was 39800 nM (active).

In the case of `O=c1[nH]c2ccccc2n2cc(-c3ccc(Cl)cc3)cc12`, the Ki [36] is reported as 3160 nM (active), the Ki [37] is reported as > 100000 nM (inactive) and the Ki [38] is reported as 10000 nM (active). For the same compound, the Ki [6] was 3160 nM (active) and the Ki [39] was 1580 nM (active).
